How the values were obtained:
[1] = system: keratin 1 and keratin 10 in outer skin of hairless mice; assay: Induction of keratinocyte differentiation in hairless mouse skin after topical application (keratin 1/keratin 10 immunostaining); assay type: in vivo
Description: Hairless mice (SPF/VAF Crl:SKH 1-hr) used in the present tests were purchased from OrientBio (Seongnam, Korea). NAADP, an experiment material of the present invention, used was a product of Sigma-Aldrich Corporation.
Test materials were prepared by dissolving NAADP for each concentration in a solution, in which 1% dimethyl sulfoxide (DMSO) was added to a phosphate buffer solution, and tests were performed by using a method of applying the test materials on right and left portions of the back of a 6-week-old mouse with cotton swabs. The test materials were applied 5 times for each concentration and the applications were performed twice a day at 9:00 a.m. and 7:00 p.m. Animals having the test materials applied for one week were sacrificed by cervical dislocation, and the skin was dissected to prepare a size of 1 cm×1 cm and was then fixed in a 10% formalin solution over a night. A paraffin block was prepared from the fixed tissues to prepare 5 micrometer slices and the slices were dyed with an antibody (Santa Cruz #SC53251) simultaneously identifying keratin 1 and keratin 10 at a dilution ratio of 1:100. Anti-mouse IgG (invitrogen) combined with Alexa 488 was used as a secondary antibody.
A solution, in which 1% DMSO was added to a phosphate buffer solution, was used as a control group and solutions prepared by diluting the solution used as the control group with NAADP in various concentrations were used as a test group.

[2] = system: involucrin, keratin 1, and keratin 10 in primarily cultured epidermal keratinocyte neonatal; assay: Expression of keratinocyte differentiation markers by western blotting; assay type: cell-based, human
Description: An effect of NAADP on promoting cell differentiation was tested by measuring the expression of differentiation markers (involucrin, keratin 1, and keratin 10) generated during the differentiation of the keratinocytes by using a western blotting method.
Primarily cultured epidermal keratinocyte neonatal was put into a culture flask and attached to the bottom thereof, and then cultured for 5 days until the cells grew to cover about 70% to 80% of an area of the bottom by adding NAADP diluted for each concentration and retinol acid as a control group into a culture medium. The cells were harvested and cleaned with phosphate buffered saline (PBS). Next, precipitates obtained by adding 1 ml of a 10 mM tris-HCl (pH 7.4) buffer solution containing 2% sodium dodecyl sulfate (SDS) and 20 mM dithiothreitol (DTT) and being subjected to sonication, boiling, and centrifugation were again suspended in 1 ml of PBS. A content of protein in the suspension was measured and used as a criterion during the evaluation of a degree of cell differentiation. The results of tests performed by using a group treating the epidermal keratinocyte neonatal (5×10^5 cells) with retinol acid (1 μM) as a positive control group and adding each NAADP having different concentration (10 pM to 10 μM) to a low calcium concentration are presented in the following FIG. 2.

[3] = system: Epidermal keratinocyte neonatal (NHEK-Np); assay: Increase in intracellular calcium in cultured keratinocytes (fluo-3 AM, confocal microscopy); assay type: cell-based, human
Description: In the present example, an efficacy in inducing an increase in intracellular calcium was evaluated when cultured keratinocytes were treated with NAADP in order to confirm an effect of recovering a skin barrier in the composition of the present invention.
Epidermal keratinocyte neonatal (NHEK-Np, CC-2507, Lonza Co. Ltd.) was treated with fluo-3 AM (Molecular Probe, USA), an intracellular calcium marker, for 30 minutes in a CO2 incubator and then washed with a KBM (Keratinocyte Basal Media, KBM-2, Lonza Co. Ltd.) medium three times. Measurement of intracellular calcium was performed in the KBM medium and an increase in intracellular calcium due to NAADP was observed. For the measurement of intracellular calcium, a concentration of calcium was calculated through the collection of images at 530 nm by using a confocal microscopy (Nikon, Japan) equipped with a laser source having an excitation wavelength of 488 nm and an emission wavelength of 530 nm Amounts of changes in calcium measured when epidermal keratinocyte neonatal (5×10^5 cells) was treated with 0.1 nM, 1 nM, 10 nM, 100 nM, 1000 nM of NAADP are illustrated in FIG. 1, respectively.

[4] = in vitro, NAADP having a high concentration

In the case of “nicotinic acid adenine dinucleotide phosphate [NAADP]”, the “concentration dependence of keratin 1 and keratin 10 increase in vivo” value ([1]; hairless mouse) is reported as “increased by depending on the concentration of NAADP”, the “concentration at which an increase in the expression level of the differentiation marker appeared” value ([1]; twice a day for one week) is reported as ≥ 100 nM and the “expression levels of keratin 1 and keratin 10 in outer skin versus control group” value ([1]; twice a day for one week, in PBS with 1% DMSO, FIG. 3) is reported as “increased”. The “expression of differentiation markers (involucrin, keratin 1, keratin 10)” value ([2]; 10 pM to 10 μM of NAADP, low calcium concentration, cultured 5 days, FIG. 2) was “differentiation markers were expressed”, the “effect on keratin 1 and keratin 10 relative to the other marker” value ([2]; 10 pM to 10 μM of NAADP, FIG. 2) was “better effects” and the “expression of the markers at high concentration of NAADP” value [2, 4] was “decreased”. For the same substance, the “intracellular calcium at high concentration of NAADP” value [3, 4] was “increased” and the “movement of intracellular calcium” value ([3]; treatment with 1 nM to 100 nM of NAADP, 5×10^5 cells, FIG. 1) was “induced”.

Reference: patent US8816065B2, “Pharmaceutical or cosmetic composition containing nicotinic acid adenine dinucleotide phosphate or derivative thereof” (Damy Chemical Co., Ltd., priority 2010, dated 2014)
